From patent US11000033B2, “Ketone or oxime compound, and herbicide” (NISSAN CHEMICAL CORPORATION, priority 2014, dated 2021)

How the values were obtained:
Assay type in all cases: in vivo
[1] = tested on: Alopecurus myosuroides; experiment: Test Example 5: herbicidal effect by foliage application, plastic box (symbol J); conditions: 320 g/ha, 3 weeks after application
Method in brief: (§1)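 Effect is rated 3 weeks after a foliar spray of water-diluted emulsion concentrate at a predetermined herbicide amount. Plants had grown 14 days in a 25° C. to 30° C. greenhouse from seed in sterilized diluvial soil.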

[2] = tested on: beet; experiment: Test Example 5: effect on crop by foliage application, plastic box (symbol f); conditions: 320 g/ha, 3 weeks after application
Method in brief: (§2)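 Greenhouse culture at 25° C. to 30° C. followed spot-like sowing into sterilized diluvial soil, with seed covered by roughly 1.5 cm of soil.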

[3] = tested on: Amaranthus retroflexus; experiment: Test Example 5: herbicidal effect by foliage application, plastic box (symbol N); conditions: 320 g/ha, 3 weeks after application
Method in brief: as §1

[4] = tested on: rapeseed; experiment: Test Example 4: effect on crop by soil treatment (symbol g); conditions: application herbicide amount 320 g/ha
Method in brief: (§3)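 Grown at 25° C. to 30° C. in a greenhouse, the crops came from seed sown spot-wise in sterilized diluvial soil under roughly 1.5 cm of covering soil.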

[5] = tested on: Galium spurium; experiment: Test Example 4: herbicidal effect by soil treatment (symbol Q); conditions: application herbicide amount 320 g/ha
Method in brief: (§4)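 Seeds were sown in sterilized diluvial soil, covered with about 1.5 cm of soil, and the soil surface was sprayed with a water-diluted emulsion of the compound at a predetermined rate. Plants grew in a greenhouse at 25° C. to 30° C.; effects were scored visually 3 weeks after application.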

[6] = tested on: Apera spica-venti; experiment: Test Example 4: herbicidal effect by soil treatment (symbol L); conditions: application herbicide amount 320 g/ha
Method in brief: as §4

[7] = tested on: Echinochloa crus-galli var. crus-galli; experiment: Test Example 3: herbicidal effect by foliage application, Wagner pot (symbol H); conditions: application herbicide amount 320 g/ha
Method in brief: (§5)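 Scoring took place 3 weeks after application, using fixed criteria. Plants had been raised from seed for 14 days at 25 to 30 °C in submerged alluvial soil before a diluted emulsion of the test compound was sprayed uniformly on the leaves.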

[8] = tested on: Setaria viridis; experiment: Test Example 4: herbicidal effect by soil treatment (symbol G); conditions: application herbicide amount 320 g/ha
Method in brief: as §4

[9] = tested on: rapeseed; experiment: Test Example 5: effect on crop by foliage application, plastic box (symbol g); conditions: 320 g/ha, 3 weeks after application
Method in brief: as §2

[10] = tested on: Cyperus difformis; experiment: Test Example 3: herbicidal effect by foliage application, Wagner pot (symbol E); conditions: application herbicide amount 320 g/ha
Method in brief: as §5

[11] = tested on: Stellaria media; experiment: Test Example 5: herbicidal effect by foliage application, plastic box (symbol P); conditions: 320 g/ha, 3 weeks after application
Method in brief: as §1

[12] = tested on: Alopecurus myosuroides; experiment: Test Example 4: herbicidal effect by soil treatment (symbol J); conditions: application herbicide amount 320 g/ha
Method in brief: as §4

[13] = tested on: Abutilon theophrasti; experiment: Test Example 5: herbicidal effect by foliage application, plastic box (symbol M); conditions: 320 g/ha, 3 weeks after application
Method in brief: as §1

[14] = tested on: Apera spica-venti; experiment: Test Example 5: herbicidal effect by foliage application, plastic box (symbol L); conditions: 320 g/ha, 3 weeks after application
Method in brief: as §1

[15] = tested on: Digitaria ciliaris; experiment: Test Example 5: herbicidal effect by foliage application, plastic box (symbol F); conditions: 320 g/ha, 3 weeks after application
Method in brief: as §1

[16] = tested on: Echinochloa oryzacola Vasing.; experiment: Test Example 1: herbicidal activity, application before weed generation in submerged conditions (symbol A); conditions: application herbicide amount 320 g/ha
Method in brief: (§6)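 Ratings (5: ≥90%, near complete withering; 4: 70–<90%; 3: 40–<70%; 2: 20–<40%; 1: 5–<20%; 0: ≤5%) were assigned 3 weeks after the diluted emulsion was applied to the water surface of freshly sown, submerged pots.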

[17] = tested on: Galium spurium; experiment: Test Example 5: herbicidal effect by foliage application, plastic box (symbol Q); conditions: 320 g/ha, 3 weeks after application
Method in brief: as §1

[18] = tested on: wheat; experiment: Test Example 4: effect on crop by soil treatment (symbol e); conditions: application herbicide amount 320 g/ha
Method in brief: as §3

[19] = tested on: Scirpus juncoides; experiment: Test Example 1: herbicidal activity, application before weed generation in submerged conditions (symbol B); conditions: application herbicide amount 320 g/ha
Method in brief: as §6

Row | SMILES | J: Alopecurus myosuroides, herbicidal effect (criteria of Test Example 1) [1] | f: beet, effect on crop (criteria of Test Example 1) [2] | N: Amaranthus retroflexus, herbicidal effect (criteria of Test Example 1) [3] | g: rapeseed, effect on crop grade [4] | Q: Galium spurium, herbicidal effect grade [5] | L: Apera spica-venti, herbicidal effect grade [6] | herbicidal effect on H (Echinochloa crus-galli var. crus-galli), grade 0-5 [7] | G: Setaria viridis, herbicidal effect grade [8] | g: rapeseed, effect on crop (criteria of Test Example 1) [9] | herbicidal effect on E, grade 0-5 [10] | P: Stellaria media, herbicidal effect (criteria of Test Example 1) [11] | J: Alopecurus myosuroides, herbicidal effect grade [12] | M: Abutilon theophrasti, herbicidal effect (criteria of Test Example 1) [13] | L: Apera spica-venti, herbicidal effect (criteria of Test Example 1) [14] | F: Digitaria ciliaris, herbicidal effect (criteria of Test Example 1) [15] | Herbicidal effect grade, A: Echinochloa oryzacola Vasing. [16] | Q: Galium spurium, herbicidal effect (criteria of Test Example 1) [17] | e: wheat, effect on crop grade [18] | Herbicidal effect grade, B: Scirpus juncoides [19] | further results
1 | CON=C(C)CC1CC(O)=C(c2c(C)cc(-c3ncccn3)cc2C)C1=O (mixture of isomers) [6-057] | 5 (Herbicidal ratio of 90% or more (almost completely withered)) | 0 (Herbicidal ratio of 5% or lower (almost no effect)) | 1 (Herbicidal ratio of 5% or higher and lower than 20%) | 1 (Herbicidal ratio of 5% or higher and lower than 20%) | 0 (Herbicidal ratio of 5% or lower (almost no effect)) | 4 (Herbicidal ratio of 70% or higher and lower than 90%) | 5 (Herbicidal ratio of 90% or more (almost completely withered)) | 5 (Herbicidal ratio of 90% or more (almost completely withered)) | 5 (Herbicidal ratio of 90% or more (almost completely withered)) | 5 (Herbicidal ratio of 90% or more (almost completely withered)) | 4 (Herbicidal ratio of 70% or higher and lower than 90%) | 3 (Herbicidal ratio of 40% or higher and lower than 70%) | 1 (Herbicidal ratio of 5% or higher and lower than 20%) | 5 (Herbicidal ratio of 90% or more (almost completely withered)) | 5 (Herbicidal ratio of 90% or more (almost completely withered)) | 3 (Herbicidal ratio of 40% or higher and lower than 70%) | 3 (Herbicidal ratio of 40% or higher and lower than 70%) | 1 (Herbicidal ratio of 5% or higher and lower than 20%) | 3 (Herbicidal ratio of 40% or higher and lower than 70%) | –
2 | CON=C(C)CC1CC(O)=C(c2c(C)cc(Oc3ccccc3)cc2C)C1=O (stereo not drawn) [6-052] | – | – | – | 3 (Herbicidal ratio of 40% or higher and lower than 70%) | 0 (Herbicidal ratio of 5% or lower (almost no effect)) | 5 (Herbicidal ratio of 90% or more (almost completely withered)) | 5 (Herbicidal ratio of 90% or more (almost completely withered)) | 3 (Herbicidal ratio of 40% or higher and lower than 70%) | – | 3 (Herbicidal ratio of 40% or higher and lower than 70%) | – | 0 (Herbicidal ratio of 5% or lower (almost no effect)) | – | – | – | 4 (Herbicidal ratio of 70% or higher and lower than 90%) | – | 0 (Herbicidal ratio of 5% or lower (almost no effect)) | 1 (Herbicidal ratio of 5% or higher and lower than 20%) | J: Alopecurus myosuroides, herbicidal effect grade [1]: 4 (Herbicidal ratio of 70% or higher and lower than 90%); f: beet, effect on crop grade [2]: 0 (Herbicidal ratio of 5% or lower (almost no effect)); N: Amaranthus retroflexus, herbicidal effect grade [3]: 0 (Herbicidal ratio of 5% or lower (almost no effect)); g: rapeseed, effect on crop grade [9]: 3 (Herbicidal ratio of 40% or higher and lower than 70%); P: Stellaria media, herbicidal effect grade [11]: 0 (Herbicidal ratio of 5% or lower (almost no effect)); M: Abutilon theophrasti, herbicidal effect grade [13]: 0 (Herbicidal ratio of 5% or lower (almost no effect)); L: Apera spica-venti, herbicidal effect grade [14]: 4 (Herbicidal ratio of 70% or higher and lower than 90%); F: Digitaria ciliaris, herbicidal effect grade [15]: 5 (Herbicidal ratio of 90% or more (almost completely withered)); Q: Galium spurium, herbicidal effect grade [17]: 0 (Herbicidal ratio of 5% or lower (almost no effect))
3 | CC(=O)CC1CC(O)=C(c2c(C)cc(-n3cccn3)cc2C)C1=O (stereo not drawn) [7-024] | 2 (Herbicidal ratio of 20% or higher and lower than 40%) | 0 (Herbicidal ratio of 5% or lower (almost no effect)) | 0 (Herbicidal ratio of 5% or lower (almost no effect)) | – | – | – | 5 (Herbicidal ratio of 90% or more (almost completely withered)) | – | 2 (Herbicidal ratio of 20% or higher and lower than 40%) | 2 (Herbicidal ratio of 20% or higher and lower than 40%) | 0 (Herbicidal ratio of 5% or lower (almost no effect)) | – | 0 (Herbicidal ratio of 5% or lower (almost no effect)) | 1 (Herbicidal ratio of 5% or higher and lower than 20%) | 0 (Herbicidal ratio of 5% or lower (almost no effect)) | 2 (Herbicidal ratio of 20% or higher and lower than 40%) | 0 (Herbicidal ratio of 5% or lower (almost no effect)) | – | 1 (Herbicidal ratio of 5% or higher and lower than 20%) | Effect on crop grade, g: rapeseed [4]: 0 (Herbicidal ratio of 5% or lower (almost no effect)); Herbicidal effect grade, Q: Galium spurium [5]: 0 (Herbicidal ratio of 5% or lower (almost no effect)); Herbicidal effect grade, L: Apera spica-venti [6]: 0 (Herbicidal ratio of 5% or lower (almost no effect)); Herbicidal effect grade, G: Setaria viridis [8]: 0 (Herbicidal ratio of 5% or lower (almost no effect)); Herbicidal effect grade, J: Alopecurus myosuroides [12]: 0 (Herbicidal ratio of 5% or lower (almost no effect)); Effect on crop grade, e: wheat [18]: 0 (Herbicidal ratio of 5% or lower (almost no effect))
